The text below walks through data of patent publication US8815592B2, “Methods and compositions related to dopaminergic neuronal cells” (Research Development Foundation, priority 2010, dated 2014).

Data set [1] deals with T1, dopaminergic transporter DAT (Mus musculus, UniProt Q61327).
T1 construct: After 16 days of differentiations, cells were incubated with [^3H]; Win35, 428 for 1 hour; endogenous in cells; host or cells: dopaminergic neurons differentiated from mouse embryonic stem cells (CGR8 line)
T1 sequence (Q61327 whole entry): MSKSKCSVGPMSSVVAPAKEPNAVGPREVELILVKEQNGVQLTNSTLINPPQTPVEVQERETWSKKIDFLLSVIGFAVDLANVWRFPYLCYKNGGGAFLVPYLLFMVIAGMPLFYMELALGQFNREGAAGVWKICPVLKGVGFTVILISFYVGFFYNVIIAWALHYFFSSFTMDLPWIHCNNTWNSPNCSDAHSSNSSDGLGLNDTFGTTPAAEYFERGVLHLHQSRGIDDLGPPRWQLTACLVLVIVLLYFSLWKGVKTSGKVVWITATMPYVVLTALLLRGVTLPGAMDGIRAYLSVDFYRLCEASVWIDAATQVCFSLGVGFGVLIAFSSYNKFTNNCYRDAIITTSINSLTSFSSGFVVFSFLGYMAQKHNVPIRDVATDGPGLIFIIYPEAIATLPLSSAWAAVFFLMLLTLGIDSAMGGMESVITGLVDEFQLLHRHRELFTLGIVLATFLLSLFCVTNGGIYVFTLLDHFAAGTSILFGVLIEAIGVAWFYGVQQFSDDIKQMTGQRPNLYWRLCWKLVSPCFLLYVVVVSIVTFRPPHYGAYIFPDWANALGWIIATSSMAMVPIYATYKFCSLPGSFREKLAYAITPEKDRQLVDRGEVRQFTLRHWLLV
As to the kind of experiment: [3H] Win 35,428 binding on DAT receptor of ES-derived dopaminergic neurons, with and without GBR 12909. Particulars: cells incubated with 10 μm GBR 12909 hydrochloride; 5 nM ligand; 6 well plates.
Description: Cells were incubated on binding buffer containing 5 nM of the ligand at different time (30 to 60 minutes), with and without 10 μm of GBR 12909 hydrochloride. […] Radioactivity measured by liquid scintillation counter (WALLAC).
Win 35,428 binding to DAT receptor and DA-neurons in 96-well plate, cells were plated at the density of 60 cells/well.
After 16 days of differentiations, cells were incubated with [^3H] Win35, 428 for 1 hour and then washed by binding buffer for 1 minute, following by direct counting using liquid scintillation counter (WALLAC).
In detail, the binding assay was performed at 4° C. in phosphate-buffered saline (PBS) (Invitrogen/Gibco) containing 0.32 M sucrose with Ca^2+ and Mg^2+. Cells in each well were washed one time with 0.5 ml of phosphatebuffered. Then incubated at various time (30 to 60 min) with various amounts (5 to 10 nM) of [^3H] Win 35,428. The non specific binding was determined in the presence or not of 10 μM of GBR-12909 hydrochloride. The incubation was stopped by rinsing the cells three times with ice-cold buffer to eliminate non-linked [^3H] Win 35,428 and removal of cells. Cells were detached by a rake and transferred into a 96 well plate. Radioactivity was measured by a liquid scintillation counter (WALLAC).

The subject of data set [2] is Engineered neural tissues (ENTs). The data set is described as follows: Neurotoxicology testing platform, electrical activity of engineered neural tissues. Type of data set: cell-based, mouse. Particulars: ENTs (FIG. 13). As for the experimental part: Engineered neural tissues (ENTs) (a similar scheme could be applied to dopaminergic neurons provided according to certain aspects of the present invention) can be used for establishment of a neurotoxicology testing platform (FIG. 12). […] Mouse ENTs differentiated for 21 days were exposed to putative neurotoxic for 24 hours and spontaneous electrical activity was measured for the neurotoxicity testing (FIG. 14). Electrophysiological characterizations of ENTs include characterization of spontaneous activity such as spike frequency, spike amplitude, burst frequency (number of bursts per second), or number of spikes per burst, or characterization of evoked filed potentials such as amplitude of responses, paired-pulse inhibition, or input/output curve. The electrophysiological characterization of ENTs can be carried out by a multi-electrode array (FIG. 16).

Where a name gives a salt, the structure may show the parent alone.

In the case of `Fc1ccc(C(OCCN2CCN(CCCc3ccccc3)CC2)c2ccc(F)cc2)cc1` [GBR 12909 hydrochloride], the “non-specific binding as share of the total binding of [3H] Win 35,428” value in data set [1] is reported as 50%. `COc1cc2c(c(OC)c1OC)-c1ccc(OC)c(=O)cc1[C@@H](NC(C)=O)CC2` [colchicine]: the epileptogenic activity result in data set [2] is given as “demonstrated”.
